#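 How tested: cells in 96-well plates exposed to compound for 48 hours at five concentrations. GI50: concentration for 50% inhibition of growth.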 Activity calls are given as the source filed them. Cut-off read from the data, not from the text of the source: active = GI50 up to about 1.1 µM and inactive = higher.
# What was measured:
# Assay in all cases: NCI-60 cell line screen, 48 h
# NCI-H522 = test system: NCI-H522
# NCI-H460 = test system: NCI-H460
# KM12 = test system: KM12
# MDA-MB-435 = test system: MDA-MB-435
# CCRF-CEM = test system: CCRF-CEM
# HCC 2998 = test system: HCC 2998
# TK-10 = test system: TK-10
# OVCAR-5 = test system: OVCAR-5
# SK-MEL-2 = test system: SK-MEL-2
# PC-3 = test system: PC-3
# SR = test system: SR
# MDA-MB-231 = test system: MDA-MB-231
# M14 = test system: M14
# Malme-3M = test system: Malme-3M
# COLO 205 = test system: COLO 205
# K562 = test system: K562
# HL-60 = test system: HL-60
# MCF7 = test system: MCF7
# UACC-62 = test system: UACC-62
# MDA-N = test system: MDA-N
Structure (SMILES),GI50 (NCI-H522),GI50 (NCI-H460),GI50 (KM12),GI50 (MDA-MB-435),GI50 (CCRF-CEM),GI50 (HCC 2998),GI50 (TK-10),GI50 (OVCAR-5),GI50 (SK-MEL-2),GI50 (PC-3),GI50 (SR),GI50 (MDA-MB-231),GI50 (M14),GI50 (Malme-3M),GI50 (COLO 205),GI50 (K562),GI50 (HL-60),GI50 (MCF7),GI50 (UACC-62),GI50 (MDA-N)
CC(=O)O/C=C\OC1CCCC1(c1ccccc1)c1ccccc1 (stereo not given),10.1 µM (inactive),7.26 µM (inactive),3.49 µM (inactive),1.96 µM (inactive),2.37 µM (inactive),8.91 µM (inactive),3.48 µM (inactive),7.13 µM (inactive),3.57 µM (inactive),3.12 µM (inactive),1.98 µM (inactive),2.4 µM (inactive),2.47 µM (inactive),2.18 µM (inactive),4.08 µM (inactive),2.16 µM (inactive),1.34 µM (inactive),2.21 µM (inactive),5.27 µM (inactive),2.31 µM (inactive)
Cc1cccc2c(N)c3cccc(C(=O)NCC[N+]4(Cc5ccc([N+](=O)[O-])cc5)CCOCC4)c3nc12,13.5 µM (inactive),14.6 µM (inactive),37.8 µM (inactive),80.5 µM (inactive),26.1 µM (inactive),12.3 µM (inactive),> 79.1 µM (inactive),> 100 µM (inactive),> 79.1 µM (inactive),40.4 µM (inactive),20.8 µM (inactive),> 60.1 µM (inactive),71.8 µM (inactive),29.4 µM (inactive),45.9 µM (inactive),16 µM (inactive),18.2 µM (inactive),38.9 µM (inactive),> 51.4 µM (inactive),59.6 µM (inactive)
NS(=O)(=O)c1ccc(NC(=S)NC=C2C(=O)c3ccccc3C2=O)cc1,65.9 µM (inactive),> 100 µM (inactive),> 100 µM (inactive),91.4 µM (inactive),> 100 µM (inactive),38.3 µM (inactive),46.6 µM (inactive),> 100 µM (inactive),62.1 µM (inactive),> 100 µM (inactive),42 µM (inactive),23.7 µM (inactive),> 100 µM (inactive),> 100 µM (inactive),> 100 µM (inactive),35.8 µM (inactive),> 100 µM (inactive),17.9 µM (inactive),56.2 µM (inactive),> 100 µM (inactive)
CCOc1ccc2c(c1)C(/C(C(Cl)=C(Cl)Cl)=[N+](/[O-])OC(=O)c1ccccc1)=N2,35.2 µM (inactive),76 µM (inactive),35.9 µM (inactive),29.6 µM (inactive),36.9 µM (inactive),59.2 µM (inactive),99.3 µM (inactive),76.4 µM (inactive),85.9 µM (inactive),30.9 µM (inactive),53.1 µM (inactive),45.7 µM (inactive),58.7 µM (inactive),> 100 µM (inactive),40.1 µM (inactive),38.7 µM (inactive),33.7 µM (inactive),39 µM (inactive),77.6 µM (inactive),37 µM (inactive)
Cc1cc(C)c([S@@](=O)O[C@@H]2[C@H]3OC(C)(C)O[C@H]3O[C@@H]2[C@H]2COC(C)(C)O2)c(C)c1,8.65 µM (inactive),24.8 µM (inactive),18.2 µM (inactive),18.2 µM (inactive),25.2 µM (inactive),22.9 µM (inactive),25.5 µM (inactive),29.2 µM (inactive),31.2 µM (inactive),19.9 µM (inactive),15.6 µM (inactive),26.7 µM (inactive),25.6 µM (inactive),25.5 µM (inactive),16.3 µM (inactive),25.9 µM (inactive),4.18 µM (inactive),16.7 µM (inactive),22 µM (inactive),26.6 µM (inactive)
O=C(O)c1ccccc1CC1Cc2ccccc2C1=O (stereo not given),> 100 µM (inactive),> 100 µM (inactive),> 100 µM (inactive),> 100 µM (inactive),> 100 µM (inactive),> 100 µM (inactive),> 100 µM (inactive),> 100 µM (inactive),> 100 µM (inactive),> 100 µM (inactive),> 100 µM (inactive),> 100 µM (inactive),> 100 µM (inactive),> 100 µM (inactive),> 100 µM (inactive),> 100 µM (inactive),> 100 µM (inactive),> 100 µM (inactive),> 100 µM (inactive),> 100 µM (inactive)
Cc1ccc(/N=N/C(=N/NC(=O)c2ccccc2)c2ccc(N(CCC#N)CCC#N)cc2C)cc1,15.5 µM (inactive),20.3 µM (inactive),29.3 µM (inactive),4.97 µM (inactive),30.3 µM (inactive),24.9 µM (inactive),> 100 µM (inactive),> 100 µM (inactive),50.4 µM (inactive),26.7 µM (inactive),5.79 µM (inactive),31.4 µM (inactive),78.2 µM (inactive),43.5 µM (inactive),35.2 µM (inactive),8.05 µM (inactive),12.2 µM (inactive),21.3 µM (inactive),31 µM (inactive),3.97 µM (inactive)
COC(=O)[C@]1(C)CCC[C@]2(C)[C@H]3CC[C@]4(C(C)C)OO[C@@H](O4)[C@]34O[C@@H]4C[C@H]21,1.43 µM (inactive),1.88 µM (inactive),2.86 µM (inactive),1.79 µM (inactive),0.5 µM (active),2.15 µM (inactive),4.88 µM (inactive),5.18 µM (inactive),14.3 µM (inactive),1.48 µM (inactive),0.238 µM (active),4.11 µM (inactive),4.8 µM (inactive),6.68 µM (inactive),2.14 µM (inactive),1.99 µM (inactive),1.68 µM (inactive),2.19 µM (inactive),5.3 µM (inactive),2.22 µM (inactive)
O=c1[nH]cnc2c1ncn2C1SC(CO)C(O)C1O (stereo not given),> 100 µM (inactive),> 100 µM (inactive),> 100 µM (inactive),> 100 µM (inactive),> 100 µM (inactive),> 100 µM (inactive),> 100 µM (inactive),> 100 µM (inactive),> 100 µM (inactive),> 100 µM (inactive),> 100 µM (inactive),> 100 µM (inactive),> 100 µM (inactive),> 100 µM (inactive),> 100 µM (inactive),> 100 µM (inactive),> 100 µM (inactive),> 100 µM (inactive),> 100 µM (inactive),> 100 µM (inactive)
O=c1[nH]c2c(c(=O)[nH]1)SSC2,17.3 µM (inactive),11.7 µM (inactive),17.9 µM (inactive),2.04 µM (inactive),0.46 µM (active),16.2 µM (inactive),16 µM (inactive),16.6 µM (inactive),6.44 µM (inactive),24 µM (inactive),0.275 µM (active),2.18 µM (inactive),2 µM (inactive),3.9 µM (inactive),21.4 µM (inactive),0.74 µM (active),1.99 µM (inactive),17.4 µM (inactive),3.03 µM (inactive),1.66 µM (inactive)
CC(C)C1CC(CO)(CNc2nc(N)nc(Cl)c2/C=N\O)C1 (stereo not given),4.53 µM (inactive),0.685 µM (active),2.03 µM (inactive),12.6 µM (inactive),13.6 µM (inactive),3.94 µM (inactive),17.6 µM (inactive),20.1 µM (inactive),12 µM (inactive),9.27 µM (inactive),0.507 µM (active),12.6 µM (inactive),13.1 µM (inactive),3.22 µM (inactive),2.37 µM (inactive),0.0843 µM (active),4.6 µM (inactive),0.687 µM (active),11.6 µM (inactive),11.3 µM (inactive)
N#CC(=N)c1ncn(-c2ccc(N)cc2)c1N,> 100 µM (inactive),> 100 µM (inactive),> 100 µM (inactive),> 100 µM (inactive),> 100 µM (inactive),> 100 µM (inactive),> 100 µM (inactive),> 100 µM (inactive),> 100 µM (inactive),> 100 µM (inactive),> 100 µM (inactive),> 100 µM (inactive),> 100 µM (inactive),> 100 µM (inactive),> 100 µM (inactive),> 100 µM (inactive),> 100 µM (inactive),> 100 µM (inactive),> 100 µM (inactive),> 100 µM (inactive)
Nc1cc2c3c(c1)Oc1cc(N)cc4c1C3c1c(cc(N)cc1O4)O2,21.2 µM (inactive),30.3 µM (inactive),22.9 µM (inactive),29 µM (inactive),43.4 µM (inactive),34.9 µM (inactive),41.7 µM (inactive),29 µM (inactive),28.9 µM (inactive),26.1 µM (inactive),15.5 µM (inactive),16.2 µM (inactive),26.9 µM (inactive),6.32 µM (inactive),16.1 µM (inactive),30.8 µM (inactive),23.9 µM (inactive),24.8 µM (inactive),26.4 µM (inactive),17.8 µM (inactive)
O=[As]O,22.8 µM (inactive),> 100 µM (inactive),> 100 µM (inactive),> 100 µM (inactive),15.6 µM (inactive),> 100 µM (inactive),> 100 µM (inactive),> 100 µM (inactive),> 59.6 µM (inactive),> 100 µM (inactive),18.9 µM (inactive),> 100 µM (inactive),> 50.5 µM (inactive),25.3 µM (inactive),> 90.6 µM (inactive),37.7 µM (inactive),9.82 µM (inactive),28.6 µM (inactive),> 39.1 µM (inactive),> 100 µM (inactive)

# Source: ChEMBL document CHEMBL1201862, “PubChem BioAssay data set” (2004)
